Source: the supplement of paper PMC6470124

How the values were obtained:
[1] = absolute recovery over vacuum-assisted evaporative concentration; higher = better recovery; conditions: enrichment method: VEC
Outline: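 Water samples (influent 6 mL, effluent 15 mL, surface and nanopure water 60 mL) were spiked with standards before concentration, after concentration or not at all, at 200 ng/L (nanopure/surface) or 1000 ng/L (wastewater), with class- and compound-specific adjustments. They were evaporated at 55 °C and 20 mbar to about 0.3 mL, brought to 0.4 mL and centrifuged. Internal standards were added afterwards and samples were analysed by LC-HRMS/MS. Absolute recovery was (response ratio pre − unspiked)/(post − unspiked) × 100, using averages of ≥ 2 replicates.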

[2] = LC retention time (Atlantis T3, 5-95% MeOH gradient, 0.1% formic acid); higher = more retained / less polar
Outline: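 Retention times were recorded for reference standards on a polar reversed-phase C18 column. The standards were of purity ≥ 95%, and the Atlantis T3 column (3 × 150 mm, 3 μm) was run at 0.3 mL/min with a gradient from 5 to 95% methanol over 17.5 min, both water and methanol containing 0.1% formic acid. Detection used high-resolution tandem mass spectrometry on a QExactive Plus, with positive and negative electrospray in separate runs, and peaks were integrated in TraceFinder (5 ppm tolerance, at least three points per peak) before being checked by hand.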

[3] = absolute recovery over mixed-bed multilayer solid-phase extraction; higher = better recovery; conditions: enrichment method: SPE
Outline: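 Wastewater (100–250 mL, pH 6.5, glass-fibre filtered) and unfiltered nanopure water (1000 mL) were extracted on a three-layer mixed-bed cartridge, with standards spiked before extraction, after it, or not at all at 1000 ng/L and 200 ng/L respectively, apart from some classes. Internal standards were then added for liquid chromatography with high-resolution tandem mass spectrometry in both ionisation modes. Absolute recovery compares background-corrected response ratios of pre- and post-spiked samples across at least two replicates.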

Row | absolute recovery ([1]; wastewater effluent) | absolute recovery ([1]; wastewater influent) | LC retention time [2] | absolute recovery ([3]; nanopure water) | absolute recovery ([3]; surface water) | absolute recovery ([3]; wastewater effluent) | absolute recovery ([3]; wastewater influent) | Structure (SMILES)
1 | 107% | 107% | 15.3 min | 92.5% | 114% | 108% | 56.7% | COc1cc2[nH+]c(N3CCN(C(=O)C4COc5ccccc5O4)CC3)nc(N)c2cc1OC (stereo unspecified) [Doxazosin]
2 | 108% | 109% | 9.01 min | 108% | 90.4% | 82% | 92.8% | C[NH2+]C(CC(C)C)C(=O)NC1C(=O)NC(CC(N)=O)C(=O)NC2C(=O)NC3C(=O)NC(C(=O)NC(C(=O)[O-])c4cc(O)cc(O)c4-c4cc3ccc4O)C(O)c3ccc(c(Cl)c3)Oc3cc2cc(c3OC2OC(CO)C(O)C(O)C2OC2CC(C)([NH3+])C(O)C(C)O2)Oc2ccc(cc2Cl)C1O (stereo unspecified) [Vancomycin]
3 | 109% | – | 19.3 min | 96.1% | 96.5% | 92.8% | – | COc1ccc2cc(C(C)C(=O)[O-])ccc2c1 (stereo unspecified) [Naproxen]
4 | 84.9% | – | 9.79 min | 107% | 85.1% | 83.5% | 102% | O=c1[nH+]c[n-]c2c1ncn2C1CCC(CO)O1 (stereo unspecified) [Didanosin]
5 | 120% | 109% | 10.8 min | 84.3% | 91.3% | 94.8% | 85% | C[NH+](C)CCOC(C)(c1ccccc1)c1ccccn1 (stereo unspecified) [Doxylamine]
6 | 93.9% | 6.6% | 21.4 min | 92.4% | 97.3% | 94.7% | 95.7% | CC(=O)C1CCC2C3CCC4=CC(=O)CCC4(C)C3CCC12C (stereo unspecified) [Progesteron]
7 | 105% | 108% | 19.8 min | 96.4% | 99% | – | 86.6% | COCC(C)N(C(=O)C(=O)[O-])c1c(C)csc1C (stereo unspecified) [Dimethenamid-OXA]
8 | 90.6% | 36.6% | 23.1 min | 97.7% | 22% | 51.5% | 96.2% | CCC(=O)OC(OP(=O)(CCCCc1ccccc1)CC(=O)N1CC(C2CCCCC2)CC1C(=O)[O-])C(C)C (stereo unspecified) [Fosinopril]
9 | 105% | 98.6% | 22.5 min | 70% | 86.7% | 81% | 78.4% | CC(C)OC(=O)C(C)(C)Oc1ccc(C(=O)c2ccc(Cl)cc2)cc1 [Fenofibrat]
10 | 103% | 98.5% | 14.5 min | 94.9% | 92.4% | 88.6% | 92.9% | CCC1(c2ccccc2)C(=O)NCNC1=O [Primidon]
11 | 93.7% | 91.9% | 19.3 min | 80.9% | 79.1% | 87.9% | 92% | CC(=O)SC1CC2=CC(=O)CCC2(C)C2CCC3(C)C(CCC34CCC(=O)O4)C12 (stereo unspecified) [Spironolacton]
12 | – | 97.9% | 12 min | 97.4% | 89.9% | 90.6% | 77.7% | C[NH+](C)CC(c1ccc(O)cc1)C1(O)CCCCC1 (stereo unspecified) [O-Desvenlafaxin]
13 | 113% | 85.2% | 9.56 min | 89.9% | 102% | 96.7% | 94.1% | CC(C)(C)Nc1nc(N)nc(O)n1 [Terbutylazin-desethyl-2-hydroxy]
14 | 104% | 103% | 8.25 min | 96.1% | 93% | 92.5% | 92% | CC(C)[NH2+]CC(O)c1ccc(NS(C)(=O)=O)cc1 (stereo unspecified) [Sotalol]
15 | 73.6% | 72.1% | 11.4 min | 62.3% | 66.9% | 62.4% | 78.1% | C#CC[NH+](C)Cc1ccccc1 [N-Methyl-N-propargylbenzylamine]
16 | 116% | 102% | 19 min | 107% | 96.8% | 101% | 92.8% | COC(=O)c1ccc(I)cc1S(=O)(=O)[N-]C(=O)Nc1nc(C)nc(OC)n1 [Iodosulfuron-methyl]
17 | 105% | 101% | 14.1 min | 76.9% | 82.5% | 76.2% | 85.7% | C[NH2+]CC(c1ccc(OC)cc1)C1(O)CCCCC1 (stereo unspecified) [N-Desvenlafaxin]

More lines, now with the values behind:

Row | Structure (SMILES) | absolute recovery ([1]; wastewater effluent) | absolute recovery ([1]; wastewater influent) | LC retention time [2] | absolute recovery ([3]; nanopure water) | absolute recovery ([3]; surface water) | absolute recovery ([3]; wastewater effluent) | absolute recovery ([3]; wastewater influent)
18 | CCNc1nc(NC(C)C)nc(OC)n1 [Atraton] | 101% | 102% | 14.4 min | 92.8% | 94.2% | 90.4% | 96%
19 | COC=C(C(=O)OC)c1ccccc1COc1cccc(C(F)(F)F)n1 [Picoxystrobin] | 94.2% | 121% | 20.3 min | 94.1% | 94.9% | 99.7% | 81.3%
20 | Fc1ccc(Oc2ccnc3cc(Cl)cc(Cl)c23)cc1 [Quinoxyfen] | 69.8% | – | 22.9 min | 63.7% | 76.4% | 78.1% | 53.1%
21 | COC=C(C(=O)OC)c1ccccc1Oc1cc(Oc2ccccc2C#N)ncn1 [Azoxystrobin] | 102% | 99.4% | 18.9 min | 96.9% | 96% | 92.8% | 93.6%
22 | CCCN(CCOc1c(Cl)cc(Cl)cc1Cl)C(=O)n1ccnc1 [Prochloraz] | 103% | 101% | 20.6 min | 99.3% | 96.4% | 93.9% | 92.3%
23 | CCOP(=O)(OCC)OC(=CCl)c1ccc(Cl)cc1Cl [Chlorfenvinphos] | 112% | 104% | 20.9 min | 85.1% | 86.4% | 94.3% | 86.9%
24 | CN(C)C(=O)Nc1ccc(-n2nc(C(C)(C)C)oc2=O)c(Cl)c1 [Dimefuron] | 108% | 103% | 18.9 min | 103% | 98.3% | 100% | 92%
25 | CC(C)(Oc1ccc(CCNC(=O)c2ccc(Cl)cc2)cc1)C(=O)[O-] [Bezafibrat] | 104% | 103% | 19.5 min | 98% | 98.8% | 92.9% | 94%
26 | CC12CCC(=O)C=C1CCC1C2C(O)CC2(C)C(C(=O)CO)CCC12 (stereo unspecified) [Corticosteron] | 111% | 55.6% | 19 min | 87.8% | 71.9% | 71.8% | 89.1%
27 | COc1c(Cl)ccc(Cl)c1C(=O)[O-] [Dicamba] | 104% | 106% | 19.3 min | 95.6% | 94% | 93.5% | 91.2%
28 | CC([NH3+])C(O)c1ccccc1 (stereo unspecified) [Cathine] | 104% | 96.1% | 9.27 min | 75.1% | 70.2% | 68.1% | 77.6%
29 | CCN(CC)C(=O)Nc1ccc(OCC(O)C[NH2+]C(C)(C)C)c(C(C)=O)c1 (stereo unspecified) [Celiprolol] | 103% | 103% | 13 min | 86.4% | 84.3% | 90.1% | 84.6%
30 | COCCN(C(=O)CCl)c1c(C)cccc1C [Dimethachlor] | 94.3% | 97.7% | 18.8 min | 93% | 89.9% | 89.6% | 95.7%
31 | CN1C(=O)CCC1c1cccnc1 (stereo unspecified) [Cotinine] | 100% | – | 6.11 min | 109% | 135% | 112% | –
32 | CS(=O)(=O)c1ccc(C(=O)[C-]2C(=O)CCCC2=O)c([N+](=O)[O-])c1 [Mesotrion] | 103% | 103% | 16 min | – | 96.5% | 94.6% | 80.1%
33 | CN(C)C(=O)Nc1ccc(Cl)cc1 [Monuron] | 103% | 106% | 16.9 min | 99.5% | – | 94.3% | 90.3%
34 | CC=CC(=O)N(CC)C(CC)C(=O)N(C)C (stereo unspecified) [Crotethamide] | 97.5% | 94.6% | 15.9 min | 106% | 94.6% | 86.1% | 121%
35 | CCNc1nc(N)nc(Cl)n1 [Atrazin-Desisopropyl] | 102% | 103% | 13.4 min | 93.4% | 93.3% | 91.3% | 94.6%
36 | CC(C)c1ccc(NC(=O)N(C)C)cc1 [Isoproturon] | 102% | 103% | 18.5 min | 98.5% | 97.4% | 97% | 92.5%
37 | CN(C)C(=O)NC1CCCCCCC1 [Cycluron] | 92.5% | 106% | 18.8 min | 91.4% | 91.2% | 89.2% | 94.2%
38 | O=S(=O)([O-])c1ccc2ccccc2c1 [2-Naphthalenesulfonic-acid] | 114% | 88.2% | 17.2 min | – | – | 92.6% | –
39 | OC(Cc1ccccc1Cl)(Cn1cncn1)C1(Cl)CC1 (stereo unspecified) [Prothioconazole-desethio] | 141% | 128% | 20.6 min | 109% | 86.3% | 104% | 104%
40 | CC(C)=NOCCOC(=O)C(C)Oc1ccc(Oc2cnc3cc(Cl)ccc3n2)cc1 (stereo unspecified) [Propaquizafop] | 68.4% | 13.2% | 22.4 min | 79.1% | 91.4% | 93.7% | 80.9%
41 | CC1(C)SC(CNC(=O)C([NH3+])c2ccc(O)cc2)[NH2+]C1C(=O)[O-] (stereo unspecified) [Amoxicillin-EP-Impurity-E] | 59.2% | 96.9% | 9.5 min | – | 12.2% | 17.8% | 30.7%
42 | Nc1[nH]c2ccccc2[nH+]1 [2-Aminobenzimidazol] | 103% | 99.3% | 9.5 min | 90.5% | 90.3% | 91.9% | 92%
43 | CCCCNC(=O)OCC#CI [IPBC (=Iodocarb)] | 60.1% | – | 18.1 min | 97.8% | 79.9% | 72.2% | 74.3%
